One experiment deals with 60 cancer cell lines. On the set-up: method as in PMID 26501955. The settings on record: cited from earlier work.
Experiment [1] has as its target T1, PIM3 (Homo sapiens, UniProt Q86V86). Also noted: purchased Eurofins DiscoverX (scanMAX) / Eurofins enzymatic assays; method as in earlier work. The settings on record: cited from earlier work.
The target of the next experiment is PIM2 (Homo sapiens, UniProt Q9P1W9). On the set-up: purchased Eurofins; method as in earlier work. Conditions: cited from earlier work.
The test system of experiment [2] is cytoplasmic domain of PDGFR. Also noted: method as in PMID 10048786. The settings on record: insect cells; read-out: IC50, autophosphorylation of the cytoplasmic domain of PDGFR in insect cells; cited from earlier work.
Experiment [3] relates to PRKAA2. Also noted: method as in earlier work. The settings on record: cited from earlier work.
A further experiment concerns the target T2, EPHB6 (Homo sapiens, UniProt O15197).
T2 construct: purchased Eurofins DiscoverX Corporation
The experiment can be described thus: DiscoverX scanMAX competition binding assay. An excerpt: (§1) Based on its narrow profile when tested in the combined Nanosyn and TSA panels, GW296115 was included in the recently released Kinase Chemogenomic Set (KCGS)[15]. All of the data presented in the Introduction section was collected prior to the inclusion of GW296115 in KCGS and everything that follows has been subsequently generated. Since its inclusion in PKIS and more recently KCGS, we have carried out a broader round of screening at DiscoverX. This profiling data has not been previously released and is reported here for the first time. GW296115 was profiled against 403 wild type human kinases at 1 μM using the DiscoverX scanMAX screening platform, which employs an active site-directed competition binding assay to quantitatively measure interactions between test compounds and kinases, [16]. GW296115 inhibited 25 kinases > 90% at 1 μM, resulting in a selectivity index (S10) of 0.062 at 1 μM (Table S2, Fig. 1C)[17].
(§2) The scanMAX assays were performed at Eurofins DiscoverX Corporation as previously described.

A further experiment concerns the target T3, MYLK3/caMLCK (Homo sapiens, UniProt Q32MK0).
T3 construct: purchased Eurofins DiscoverX Corporation
The experiment can be described thus: DiscoverX scanMAX competition binding assay.
Excerpt: as §1, §2

Experiment [4] deals with T4, GAK (Homo sapiens, UniProt O14976).
T4 construct: purchased Eurofins DiscoverX (scanMAX) / Eurofins enzymatic assays
The experiment can be described thus: DiscoverX scanMAX competition binding assay.
Excerpt: as §1, §2

A further experiment addresses T5, MAP2K5 (Homo sapiens, UniProt Q13163).
T5 construct: purchased Eurofins DiscoverX (scanMAX) / Eurofins enzymatic assays
The experiment can be described thus: DiscoverX scanMAX competition binding assay.
Excerpt: as §1, §2

The next experiment has as its target T6, RIOK3 (Homo sapiens, UniProt O14730).
T6 construct: purchased Eurofins DiscoverX (scanMAX) / Eurofins enzymatic assays
As to the kind of experiment: DiscoverX scanMAX competition binding assay.
Excerpt: as §1, §2

The next experiment concerns the target T7, MAP3K19 (Homo sapiens, UniProt Q56UN5).
T7 construct: purchased Eurofins DiscoverX (scanMAX) / Eurofins enzymatic assays
As to the kind of experiment: DiscoverX scanMAX competition binding assay.
Excerpt: as §1, §2

The test system of the next experiment is PDGFRβ. On the set-up: method as in PMID 26501955. Conditions: cited from earlier work.
Another experiment has as its target T8, MAP2K5/MEK5 (Homo sapiens, UniProt Q13163).
T8 construct: purchased Eurofins
The experiment can be described thus: Eurofins kinase enzymatic LANCE assay. The format is biochemical. From the text: (§3) Due to our interest in the activity of GW296115 on several understudied IDG kinases, we collected full dose–response curves for all wild type kinases inhibited ≥ 75% in the DiscoverX panel that were offered by Eurofins. Having data in orthogonal formats is a powerful way to confirm inhibitory activity and adds rigor to our results. Eurofins has kinase enzymatic radiometric assays for 35 of the kinases on this list (Table S2) and a kinase enzymatic LANCE assay for one additional kinase (MAP2K5/MEK5).
(§4) Eurofins kinase enzymatic radiometric assays were carried out at the Km of ATP in dose–response (9-pt curve in duplicate) for each kinase for which it was offered.

The test system of a further experiment is PDGFRα. On the set-up: method as in PMID 26501955. The settings on record: cited from earlier work.
For experiment [5], the system named is 17 different cancer and normal cell lines. As to the kind of experiment: cell growth, deep dye drop method. The format is cell-based. Conditions: 1 μM for 72 h; 17 cancer and normal cell lines; deep dye drop method (N = 2). How it is done:
(A) Structure of GW296115. […] Cell lines in the panel were treated with 1 μM GW296115 for 72 h (N = 2) and analyzed using the deep dye drop method. MCF10A and MRC-5 are non-malignant cell lines. […] Coral was used to make (C): https://phanstiel-lab.med.unc.edu/CORAL.
This compound was further profiled in 17 different cancer and normal cell lines to determine whether it impacted cell growth when treated at 1 μM for 72 h. […] Here we further explore the target engagement characteristics of GW296115 in vitro and in cells and capture its specificity for the CAMK family of kinases.

Experiment [6] concerns the target T1, PIM3. On the set-up: purchased Eurofins; method as in earlier work. Conditions: cited from earlier work.
Experiment [7] has as its target T9, PRKAA2 (Homo sapiens, UniProt P54646).
T9 construct: purchased Eurofins DiscoverX Corporation
As to the kind of experiment: DiscoverX scanMAX competition binding assay. Conditions: read-out: % inhibition in the DiscoverX scanMAX panel at 1 μM.
Excerpt: as §1
To ascertain selectivity of GW296115 and validate our DiscoverX screening results using an orthogonal assay format, we chose to utilize Eurofins enzymatic kinase assays in dose–response at the Km of ATP.
as §2

The next experiment has as its target STK33 (Homo sapiens, UniProt Q9BYT3). Also noted: purchased Eurofins; method as in earlier work. Conditions: cited from earlier work.
The next experiment concerns RSK3. On the set-up: method as in earlier work. The settings on record: cited from earlier work.
The target of the next experiment is T10, RPS6KA3/RSK2 (Homo sapiens, UniProt P51812).
T10 construct: purchased Eurofins
The experiment can be described thus: Eurofins kinase enzymatic radiometric assay. The format is biochemical. Conditions: Km of ATP, 9-point curve in duplicate.
Excerpt: as §3, §4

Experiment [8] concerns GAK. Also noted: method as in earlier work. Conditions: cited from earlier work.

Structures are written as SMILES.

The term IC50 denotes the concentration that inhibits the measured activity by half. One may read the inhibition as the percentage by which the read-out fell short of the control.

T7 sequence (Q56UN5 whole entry): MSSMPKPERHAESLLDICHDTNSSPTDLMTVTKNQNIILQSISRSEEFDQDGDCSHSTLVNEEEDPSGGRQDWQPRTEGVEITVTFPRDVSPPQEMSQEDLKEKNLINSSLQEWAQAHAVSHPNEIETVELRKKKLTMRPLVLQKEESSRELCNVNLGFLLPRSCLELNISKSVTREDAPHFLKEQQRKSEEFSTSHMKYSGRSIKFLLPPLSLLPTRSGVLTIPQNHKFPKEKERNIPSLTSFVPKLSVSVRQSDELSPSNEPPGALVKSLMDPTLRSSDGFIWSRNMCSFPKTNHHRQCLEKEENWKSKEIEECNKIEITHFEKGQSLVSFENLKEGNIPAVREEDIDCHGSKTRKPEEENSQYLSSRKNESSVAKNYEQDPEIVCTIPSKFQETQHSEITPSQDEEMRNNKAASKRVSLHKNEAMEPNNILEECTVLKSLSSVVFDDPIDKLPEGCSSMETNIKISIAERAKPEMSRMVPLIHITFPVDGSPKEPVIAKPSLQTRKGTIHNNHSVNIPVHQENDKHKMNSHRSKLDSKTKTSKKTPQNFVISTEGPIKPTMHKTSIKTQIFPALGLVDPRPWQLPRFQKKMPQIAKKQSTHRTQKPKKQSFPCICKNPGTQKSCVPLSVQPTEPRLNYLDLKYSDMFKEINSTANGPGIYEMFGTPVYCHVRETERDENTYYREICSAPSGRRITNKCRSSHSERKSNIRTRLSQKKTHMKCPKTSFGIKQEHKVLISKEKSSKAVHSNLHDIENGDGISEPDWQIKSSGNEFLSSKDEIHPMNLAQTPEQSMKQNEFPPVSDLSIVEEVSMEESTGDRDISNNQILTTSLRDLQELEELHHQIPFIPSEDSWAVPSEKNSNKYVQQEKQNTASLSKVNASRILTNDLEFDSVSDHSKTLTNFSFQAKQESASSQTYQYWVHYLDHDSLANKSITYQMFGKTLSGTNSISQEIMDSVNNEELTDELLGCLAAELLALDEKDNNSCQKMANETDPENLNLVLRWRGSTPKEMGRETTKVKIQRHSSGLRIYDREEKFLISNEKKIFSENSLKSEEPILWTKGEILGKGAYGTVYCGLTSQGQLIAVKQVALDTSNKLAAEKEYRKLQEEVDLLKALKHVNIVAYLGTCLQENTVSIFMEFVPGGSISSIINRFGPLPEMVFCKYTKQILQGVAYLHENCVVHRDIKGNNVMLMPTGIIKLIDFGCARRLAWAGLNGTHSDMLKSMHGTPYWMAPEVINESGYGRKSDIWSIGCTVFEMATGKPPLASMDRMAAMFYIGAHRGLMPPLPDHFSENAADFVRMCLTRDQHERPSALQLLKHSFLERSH
T4 sequence (O14976 whole entry): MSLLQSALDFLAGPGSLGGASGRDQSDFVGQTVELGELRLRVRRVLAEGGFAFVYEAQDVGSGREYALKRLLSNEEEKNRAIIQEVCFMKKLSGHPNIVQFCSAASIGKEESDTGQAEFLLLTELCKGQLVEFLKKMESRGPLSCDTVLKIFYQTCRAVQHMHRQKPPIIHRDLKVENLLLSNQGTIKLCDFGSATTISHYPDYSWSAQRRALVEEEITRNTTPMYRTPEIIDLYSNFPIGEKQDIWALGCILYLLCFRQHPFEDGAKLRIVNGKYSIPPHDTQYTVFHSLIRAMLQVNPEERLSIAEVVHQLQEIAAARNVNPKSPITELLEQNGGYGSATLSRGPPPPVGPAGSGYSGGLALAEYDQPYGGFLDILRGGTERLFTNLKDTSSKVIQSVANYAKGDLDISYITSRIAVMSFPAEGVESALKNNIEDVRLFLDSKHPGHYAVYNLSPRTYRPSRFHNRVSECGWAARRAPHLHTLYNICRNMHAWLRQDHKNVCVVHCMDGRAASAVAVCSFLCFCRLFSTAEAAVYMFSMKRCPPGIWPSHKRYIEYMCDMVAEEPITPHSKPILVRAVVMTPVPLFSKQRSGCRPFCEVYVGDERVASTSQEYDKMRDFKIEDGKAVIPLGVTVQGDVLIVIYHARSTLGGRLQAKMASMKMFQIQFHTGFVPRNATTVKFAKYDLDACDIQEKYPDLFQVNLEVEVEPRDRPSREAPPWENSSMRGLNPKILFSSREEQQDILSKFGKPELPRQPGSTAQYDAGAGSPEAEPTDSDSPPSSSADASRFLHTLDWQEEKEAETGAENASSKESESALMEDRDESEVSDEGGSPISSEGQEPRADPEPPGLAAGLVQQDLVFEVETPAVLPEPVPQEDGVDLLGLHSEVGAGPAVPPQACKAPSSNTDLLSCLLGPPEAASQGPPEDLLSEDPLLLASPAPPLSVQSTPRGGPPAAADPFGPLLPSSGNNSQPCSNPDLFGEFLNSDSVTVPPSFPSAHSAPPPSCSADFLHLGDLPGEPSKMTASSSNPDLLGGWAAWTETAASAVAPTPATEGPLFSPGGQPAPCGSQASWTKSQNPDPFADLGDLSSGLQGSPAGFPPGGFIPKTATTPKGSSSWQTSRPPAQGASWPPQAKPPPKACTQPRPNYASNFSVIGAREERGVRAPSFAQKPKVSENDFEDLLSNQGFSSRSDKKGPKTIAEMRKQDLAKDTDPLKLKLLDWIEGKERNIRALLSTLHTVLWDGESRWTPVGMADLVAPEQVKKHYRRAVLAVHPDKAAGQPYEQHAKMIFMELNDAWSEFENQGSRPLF
STK33, sequence (Q9BYT3 whole entry): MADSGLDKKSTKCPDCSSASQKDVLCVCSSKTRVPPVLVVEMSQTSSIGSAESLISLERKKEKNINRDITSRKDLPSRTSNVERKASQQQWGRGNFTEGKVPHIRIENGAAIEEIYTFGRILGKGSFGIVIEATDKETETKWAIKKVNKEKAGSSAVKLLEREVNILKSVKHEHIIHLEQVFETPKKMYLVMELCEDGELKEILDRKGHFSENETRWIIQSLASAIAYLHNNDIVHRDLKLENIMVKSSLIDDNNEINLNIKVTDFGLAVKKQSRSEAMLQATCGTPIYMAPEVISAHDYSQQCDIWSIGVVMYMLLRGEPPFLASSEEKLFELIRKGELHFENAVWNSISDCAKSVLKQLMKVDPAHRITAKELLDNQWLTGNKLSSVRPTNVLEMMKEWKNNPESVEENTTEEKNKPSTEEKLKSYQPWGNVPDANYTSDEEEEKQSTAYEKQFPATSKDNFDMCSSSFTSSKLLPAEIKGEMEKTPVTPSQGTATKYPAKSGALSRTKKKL
T6 sequence (O14730 whole entry): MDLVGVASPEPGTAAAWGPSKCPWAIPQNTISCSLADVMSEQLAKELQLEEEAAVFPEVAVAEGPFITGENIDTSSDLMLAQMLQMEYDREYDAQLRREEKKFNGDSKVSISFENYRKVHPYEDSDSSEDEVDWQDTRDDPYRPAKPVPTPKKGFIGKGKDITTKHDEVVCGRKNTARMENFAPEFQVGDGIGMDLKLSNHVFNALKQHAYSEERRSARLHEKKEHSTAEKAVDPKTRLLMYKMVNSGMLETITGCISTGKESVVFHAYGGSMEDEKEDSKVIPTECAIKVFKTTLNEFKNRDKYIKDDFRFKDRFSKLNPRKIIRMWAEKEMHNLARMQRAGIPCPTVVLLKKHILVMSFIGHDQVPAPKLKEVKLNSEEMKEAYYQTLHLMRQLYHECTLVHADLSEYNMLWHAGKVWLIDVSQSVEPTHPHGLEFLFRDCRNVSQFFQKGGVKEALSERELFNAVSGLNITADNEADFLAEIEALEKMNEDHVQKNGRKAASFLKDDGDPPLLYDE
T2 sequence (O15197 32-1021): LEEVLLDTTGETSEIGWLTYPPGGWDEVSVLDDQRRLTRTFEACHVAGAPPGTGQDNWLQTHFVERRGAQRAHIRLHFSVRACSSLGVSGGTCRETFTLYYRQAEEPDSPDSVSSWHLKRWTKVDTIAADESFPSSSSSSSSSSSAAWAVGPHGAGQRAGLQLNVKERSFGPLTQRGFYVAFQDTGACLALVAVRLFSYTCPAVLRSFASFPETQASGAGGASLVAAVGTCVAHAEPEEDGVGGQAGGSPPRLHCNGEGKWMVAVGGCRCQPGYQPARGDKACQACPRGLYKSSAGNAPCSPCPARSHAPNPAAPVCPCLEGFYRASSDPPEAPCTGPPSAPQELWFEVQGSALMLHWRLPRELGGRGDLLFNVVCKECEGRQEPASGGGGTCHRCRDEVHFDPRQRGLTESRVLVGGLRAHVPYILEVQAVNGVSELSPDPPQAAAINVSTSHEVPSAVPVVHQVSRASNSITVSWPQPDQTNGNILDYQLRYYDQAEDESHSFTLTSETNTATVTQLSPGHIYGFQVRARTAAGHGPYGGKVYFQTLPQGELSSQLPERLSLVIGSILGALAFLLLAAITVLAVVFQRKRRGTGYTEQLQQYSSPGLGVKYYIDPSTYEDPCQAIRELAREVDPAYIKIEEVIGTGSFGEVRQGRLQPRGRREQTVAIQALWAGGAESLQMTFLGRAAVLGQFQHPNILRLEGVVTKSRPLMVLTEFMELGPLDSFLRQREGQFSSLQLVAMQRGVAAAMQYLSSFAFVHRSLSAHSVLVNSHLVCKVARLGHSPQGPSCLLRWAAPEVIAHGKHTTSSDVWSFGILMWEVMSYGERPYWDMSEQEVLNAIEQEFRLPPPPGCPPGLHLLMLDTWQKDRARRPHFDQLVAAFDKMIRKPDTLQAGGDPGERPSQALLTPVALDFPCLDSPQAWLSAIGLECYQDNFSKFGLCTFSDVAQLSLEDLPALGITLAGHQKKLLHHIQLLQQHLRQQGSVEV

As for `COc1ccc2[nH]c3c4[nH]c5ccc(OC)cc5c4c4c(c3c2c1)C(=O)NC4=O` [GW296115], the “effect on cell growth, NCI60 panel” value with 60 cancer cell lines is “does not impact cell growth”. The “Nanosyn % Inhibition at 1 μM” value on PIM3 [1] is 83%; with PDGFRβ it was 85%; in the experiment on PDGFRα, 84%; in the experiment on RSK3 it was 92%. The “TSA ΔTm at 10 μM (°C)” value at PIM2 is 9.8 °C; in the experiment on PRKAA2 [3] it was 10.6 °C; at PIM3 [6] it was 12.0 °C; on STK33, 9.8 °C; in the experiment on GAK [8] it was 8.4 °C. The values for the 50% inhibitory concentration (IC50) (in experiment [2]; on MAP2K5/MEK5; at RPS6KA3/RSK2) were 2000 nM, greater than 10000 nM and 11 nM, respectively. The inhibition at 1 µM at EPHB6 worked out at 85%; at MYLK3/caMLCK, 80%; at GAK [4], 96.7%; at MAP2K5 it was 99.5%; on RIOK3 it was 89%; at MAP3K19 it was 100%. Further, the inhibition at 1 µM on PRKAA2 [7] amounted to 20%. Further, the “effect on cell growth” value in experiment [5] is given as “did not impact cell growth”.

(Values after paper PMC7522982, “PKIS deep dive yields a chemical starting point for dark kinases and a cell active BRSK2 inhibitor” (Scientific Reports, 2020).)
